These results are taken from paper PMC9693223 (Molecules, 2022).

Several values for one entry are separate records, joined by “and”; a condition that tells them apart may be missing. Identical values can stand only once. Like-named read-outs stand apart in the source and are kept apart here. Bounds are passed on as bounds.

Data set [1] deals with L. mexicana Cas9 promastigotes. On the set-up: method as in de Almeida Fiuza et al. [41]. The settings on record: starred values, ref de Almeida Fiuza et al. [41], read-out: EC50 (µM) AVG ± SEM, Cas9; cited from earlier work.
The test system of data set [2] is intracellular T. cruzi amastigotes. The following applies: ref [16], cited from earlier work.
The test system of data set [3] is L. mexicana Cas9^ΔNT1 promastigotes. On the set-up: method as in de Almeida Fiuza et al. [41]. The following applies: starred values, ref de Almeida Fiuza et al. [41], cited from earlier work; for EC50: L. mexicana Cas9^ΔNT1 promastigotes, read-out: EC50 (µM) AVG ± SEM, L. mexicana Cas9^ΔNT1.
For data set [4], the system named is L. mexicana Cas9^ΔNT1+TcrNT2 promastigotes. More on the design: method as in de Almeida Fiuza et al. [41]. The settings on record: L. mexicana Cas9^ΔNT1+TcrNT2 promastigotes; starred values; ref de Almeida Fiuza et al. [41]; read-out: EC50 (µM) AVG ± SEM, L. mexicana Cas9^ΔNT1+TcrNT2; cited from earlier work.
For data set [5], the target named is T1, TcrNT2 (Trypanosoma cruzi, UniProt Q4DHG0). The following applies: cited from earlier work; for Ki: earlier characterization, read-out: Ki on thymidine transport by TcrNT2.
The test system of the next data set is NT1 transport activity. On the set-up: method as in PMID 28453984. The settings on record: NT1 transport activity in L. mexicana; ref [36]; cited from earlier work.
The target in data set [6] is P2/TbAT1 aminopurine transporter. The following applies: T. brucei P2; ref [16],[17]; cited from earlier work.
A further data set concerns the target P1 transporter. The settings on record: T. brucei P1; ref [16],[17]; cited from earlier work.
The target in data set [7] is T1, TcrNT2. Kind of data set: Transport of [^3H]-thymidine by TcrNT2 expressed in L. mexicana Cas9^ΔNT1 (Km, inhibition). Format: cell-based. The following applies: for ΔG° (Gibbs free energy of interaction): calculated from Km or Ki at 25 °C. As to the method: (§1) These values can be used to calculate the Gibbs free energy of interaction ΔG°, but these experiments cannot distinguish between the test compound being transported or merely binding to the transporter and inhibiting the transit of the [^3H]-thymidine.
Transport assays were conducted with radiolabeled nucleosides [methyl-^3H]-thymidine (20 Ci/mmol; PerkinElmer (Waltham, MA, USA)) and [2,8-^3H]-adenosine (40 Ci/mmol; American Radiolabeled Chemicals (ARC, St-Louis, MO, USA)). Cells were harvested from mid-log phase cultures by centrifugation and washed into an assay buffer (AB) as described, at a density of 1 × 10^8 cells mL^−1. Transport assays were then performed exactly as described previously, using an oil-stop protocol. Briefly, 100 µL of cell suspension (10^7 cells) was mixed with 100 µL of [^3H]-substrate at 2 × final concentration and incubated for a pre-set time prior to the addition of 800 µL of ice-cold AB containing a saturating concentration of unlabeled permeant (usually 1 or 2.5 mM) and immediate centrifugation through an oil layer to separate cells from extracellular radiolabel. The 100 µL of [^3H]-substrate could also contain unlabeled substrate or an inhibitor at 2 × concentration, as appropriate. Next, the microfuge tubes were flash frozen in liquid nitrogen; the tips with the cell pellets cut off and collected in scintillation tubes. Cells were solubilized by incubation in 2% SDS under gentle shaking on a rocking platform prior to the addition of scintillation fluid (Scintilogic U, Lablogic, Sheffield, UK). The tubes stored in the dark overnight before counting in a 300SL Hidex Scintillation Counter (Lablogic).
Michaelis-Menten constants (Km) were calculated by plotting transport rates of [^3H]-substrate against the concentration, using the Michaelis-Menten equation V0 = Vmax([substrate]/([substrate] + Km)) and non-linear regression in GraphPad Prism 8. Inhibition constants (Ki) were calculated using the Cheng-Prusoff equation: Ki = IC50/(1 + (L/Km)), where L represents the radiolabel concentration. The IC50 was obtained by a non-linear regression of the inhibition curve of transport rate versus inhibitor concentration, using an equation for a sigmoid curve with variable slope (GraphPad Prism 8). The Gibbs free energy ΔG° was obtained using the equation ΔG° = −RTln(Ki), in which R is the gas constant and T is the absolute temperature. As discussed previously, these equations apply to competitive rather than non-competitive inhibition. Given that only close analogues of the substrate were used as potential inhibitors and that Hill slopes were consistently close to −1, it is very likely that inhibition was indeed competitive.

For data set [8], the system named is L. mexicana Cas9^ΔNT1 promastigotes. Kind of data set: Transport of [^3H]-thymidine by L. mexicana Cas9^ΔNT1 promastigotes. Format: cell-based, Leishmania mexicana. The settings on record: 0.05 µM [^3H]-thymidine, Cas9^ΔNT1 cells, over 180 s. As to the method:
It is well documented that the NT1 transport activity is responsible for the uptake of adenosine and of pyrimidine nucleosides in Leishmania spp.. […] We thus assessed the uptake of these two nucleosides in Cas9^ΔNT1. […] In contrast, the transport of 0.1 µM of [^3H]-adenosine by L. mexicana Cas9^ΔNT1 promastigotes was virtually abolished and became statistically identical to the uptake in the presence of 1 mM unlabeled adenosine (p > 0.05).
Figure 1 [^3H]-Adenosine and [^3H]-Thymidine transport by L. mexicana Cas9 and L. mexicana Cas9^ΔNT1. (A). Transport of 0.1 µM of [^3H]-adenosine by L. mexicana Cas9 and L. mexicana Cas9^ΔNT1 was measured over 20 s in the presence or absence of 1 mM unlabeled adenosine. (B). Transport of 0.05 μM of [^3H]-thymidine by L. mexicana Cas9 and L. mexicana Cas9^ΔNT1 was measured over 180 s in the presence or absence of 1 mM unlabeled thymidine, respectively. Symbols represent the average of triplicate determinations in a single representative experiment and error bars represent ± SEM.
Transport assays were conducted with radiolabeled nucleosides [methyl-^3H]-thymidine (20 Ci/mmol; PerkinElmer (Waltham, MA, USA)) and [2,8-^3H]-adenosine (40 Ci/mmol; American Radiolabeled Chemicals (ARC, St-Louis, MO, USA)). Cells were harvested from mid-log phase cultures by centrifugation and washed into an assay buffer (AB) as described, at a density of 1 × 10^8 cells mL^−1. […]

Data set [9] deals with L. mexicana Cas9 promastigotes. As to the kind of experiment: Alamar blue drug sensitivity assay, L. mexicana Cas9 promastigotes. The data set is classed as cell-based, Leishmania mexicana. The following applies: Leishmania mexicana, 120 h, 72 h + 48 h resazurin, at least 3 independent determinations, read-out: EC50 (µM) AVG ± SEM, Cas9. From the text:
We used L. mexicana promastigotes of the Cas9 strain developed by Beneke at al. to generate the ΔNT1 strain, and from there the Cas9^ΔNT1+TcrNT2 (see below); The original Cas9 strain was generously donated by Prof. Eva Gluenz (University of Bern, Switzerland). All strains in standard HOMEM (GIBCO, Life Technologies, Paisley, UK) supplemented with 10% heat-inactivated fetal bovine serum (FBS; PAA Laboratories, Linz, Austria) and 1% of a penicillin–streptomycin solution (10,000 U mL^−1 each; Life Technologies) at 25 °C, as described.
The Alamar blue assay (resazurin sodium salt) was used to determine the drug sensitivity of the L. mexicana promastigotes in vitro. The assay is based on the reduction of resazurin sodium salt (blue and non-fluorescent) to resorufin (pink color and fluorescent) by live cells. HOMEM medium with 10% FBS (100 μL) was added to all wells of a white 96-well plate apart from the first well. 200 μL of a known concentration of test compounds was diluted in HOMEM medium and placed in the first well. Compounds were tested in one plate and every compound was diluted over two rows (23 concentrations), leaving the last well of every dilution as a negative control having 100 μL HOMEM medium. Next, 100 μL of L. mexicana culture at a density of 2 × 10^6 cells mL^−1 was added into every well in the plate and incubated for 72 h at a temperature of 25 °C after which resazurin sodium salt (Sigma) (20 μL of a solution of 12.5 mg in 100 mL PBS) was added and the plate was incubated under the same conditions for a further 48 h. Fluorescence was measured in a FLUOstar OPTIMA plate reader (BMG Labtech, Germany), at a wavelength of 544 nm for excitation and 620 nm for emission. The EC50 values and fluorescence data were determined and plotted by the GraphPad Prism 8 Software using an equation for a sigmoid curve with variable slope. Pentamidine was used as positive control and every experiment was performed 3–4 times independently.
On the technique in general: Alamar Blue is a resazurin reagent that responds to reducing activity.

Substrate in data set [10]: Cc1cn([C@H]2C[C@H](O)[C@@H](CO)O2)c(=O)[nH]c1=O
As to the kind of experiment: Transport of [^3H]-thymidine by TcrNT2 expressed in L. mexicana Cas9^ΔNT1 (Km, inhibition). The settings on record: other: TcrNT2 in L. mexicana Cas9^ΔNT1, […] [^3H]-thymidine, 5 min, n = 3. The data set is classed as cell-based, Trypanosoma cruzi. As to the method:
as §1
Transport assays were conducted with radiolabeled nucleosides [methyl-^3H]-thymidine (20 Ci/mmol; PerkinElmer (Waltham, MA, USA)) and [2,8-^3H]-adenosine (40 Ci/mmol; American Radiolabeled Chemicals (ARC, St-Louis, MO, USA)). Cells were harvested from mid-log phase cultures by centrifugation and washed into an assay buffer (AB) as described, at a density of 1 × 10^8 cells mL^−1. Transport assays were then performed exactly as described previously, using an oil-stop protocol. […]
Michaelis-Menten constants (Km) were calculated by plotting transport rates of [^3H]-substrate against the concentration, using the Michaelis-Menten equation V0 = Vmax([substrate]/([substrate] + Km)) and non-linear regression in GraphPad Prism 8. Inhibition constants (Ki) were calculated using the Cheng-Prusoff equation: Ki = IC50/(1 + (L/Km)), where L represents the radiolabel concentration. […]

Setting [11] is: TcrNT2 expressed in T. brucei, ref Campagnaro et al. [30].

As for `Nc1ncnc2c1c(-c1ccc(Cl)c(Cl)c1)cn2[C@@H]1O[C@H](CO)[C@@H](O)[C@H]1O` [FH3147, 7-(3,4-dichlorophenyl)-tubercidin], the concentration giving a half-maximal response (EC50) (commonly the concentration needed to bring the measured effect to its halfway point) in [1] was 8.41 ± 1.61 µM; in data set [2] (intracellular amastigotes, read-out: EC50 against intracellular T. cruzi amastigotes), 0.19 µM; in [3], above 100 µM; in data set [4] it was 13.7 ± 1.25 µM. Besides, the “RF vs. Cas9 (resistance factor)” value in data set [3] (EC50 Cas9^ΔNT1 relative to Cas9) is on record as above 11.8.

For the molecule `Nc1ncnc2c1ncn2[C@@H]1O[C@H](CO)[C@@H](O)[C@H]1O` [Adenosine], at TcrNT2 [5] (setting [11]), the Ki (commonly a dissociation constant, usually derived from enzyme kinetics or from competition with a known ligand) is 1560 ± 60 µM. For the same molecule, on TcrNT2 [5] (from cited Ki, ref Campagnaro et al. [30]), the “ΔG° (Gibbs free energy of interaction)” value is -3.78 kcal/mol. The Km (as a rule, the concentration of substrate that gives half-maximal velocity) in the data set on NT1 transport activity was 0.81 ± 0.16 µM.

Consider `Nc1ncnc2c1c(-c1ccccn1)cn2[C@@H]1O[C@H](CO)[C@@H](O)[C@H]1O` [7-(2-pyridyl)-tubercidin], for which the inhibitory constant (Ki) (in data set [6]; on P1 transporter) was below 5 µM each time.

With `Cc1cn([C@H]2C[C@H](O)[C@@H](CO)O2)c(=O)[nH]c1=O` [thymidine], the Km on TcrNT2 [5] (TcrNT2 expressed in T. brucei, ref [30], read-out: Km of thymidine uptake by TcrNT2) was ~0.2 µM and 0.223 µM and 0.22 µM; in the data set on NT1 transport activity, 11.2 ± 2.4 µM. For the same molecule, the “ΔG° (Gibbs free energy of interaction)” value on TcrNT2 [7] is -8.96 kcal/mol. Besides, in data set [8], the “rate of [^3H]-thymidine transport” value is reported as 0.00004 ± 0.000006 pmol(10^7 cells)^−1 s^−1.

Turning to `Nc1ncnc2c1c(Br)cn2[C@@H]1O[C@H](CO)[C@@H](O)[C@H]1O` [TH1003, 7-bromo-tubercidin], the EC50 in [9] was determined as 0.16 ± 0.018 µM. Moreover, the Ki on TcrNT2 [7] is 784 ± 41 µM; in [6], below 5 µM; on P1 transporter, below 5 µM. Moreover, the “ΔG° (Gibbs free energy of interaction)” value on TcrNT2 [7] was -4.73 kcal/mol.

With `Nc1ncnc2c1ccn2[C@@H]1O[C@H](CO)[C@@H](O)[C@H]1O` [Tubercidin, tubercidin], the inhibitory constant (Ki) on TcrNT2 [5] (setting [11]) was 700 ± 110 µM; at TcrNT2 [7], 852 ± 2 µM. The EC50 in data set [1] is 1.02 ± 0.16 µM; in data set [9], 0.43 ± 0.15 µM; in data set [2] (T. cruzi in vitro, read-out: EC50 against T. cruzi in vitro), 0.34 µM; in [3], 25.7 ± 0.94 µM; in data set [4], 0.82 ± 0.13 µM. In addition, the “ΔG° (Gibbs free energy of interaction)” value at TcrNT2 [7] was -4.18 kcal/mol. Also, the “δ(ΔG°) with respect to ΔG° of thymidine” value on TcrNT2 [7] (change in ΔG° relative to thymidine) was -4.78 kcal/mol.

B1: TcrNT2 (Trypanosoma cruzi strain CL Brener) (protein)
chain: MGLGFEFWGEAYSYAAAIMCGLSMLLPINAIFSAPLYIMNYYQYVMHDPNAVAKHKNFWDNALTYYSMLIMLVALIVEPLTLSEAFRRIPIRLRMLSALSMFWLEIIILMSVPAAGSTEAGAISAIVCASFSSALGKSVFESTAYGLFGVFPSRFNTALMGGVGVAGALASILQLIVKASLPQDYSGIRTQSKIYYGLMAGIHGITFIMVVGLHWVPFAQRYINALSGGTSSPASNNPDQAAESETEAASKANEKSAPKATNGGDDNADSGRLVNTNVIFVLKCVYPMLSACGFNFFITLFLFPTIVVSVDPDDYWYGTVAVCIFNVCDVCGRFSPSLKCLWPPRWVVLVGSFSRVVFVPLLILASYHYIPSHAYNYVMMVIFGLSNGYIGALAITLGPLTRNLETSGQRFVAGTMFGISILIGGTIGSALSILVQTLRG
B1: the values for the Km in data set [10] and in data set [10] ([…]) were 0.263 µM and 0.26 ± 0.05 µM, respectively.
